{"source": "patent US8791131B2", "about": "“Imidazo[1,5]naphthyridine compounds, their pharmaceutical use and compositions” (Pfizer Inc., priority 2008, dated 2014)", "key": {"PI3-Kα": {"molecular_target": "PI3-Kα (Mus musculus (Mouse), UniProt P42337)", "sequence (P42337 whole entry, the tested form may be a part)": "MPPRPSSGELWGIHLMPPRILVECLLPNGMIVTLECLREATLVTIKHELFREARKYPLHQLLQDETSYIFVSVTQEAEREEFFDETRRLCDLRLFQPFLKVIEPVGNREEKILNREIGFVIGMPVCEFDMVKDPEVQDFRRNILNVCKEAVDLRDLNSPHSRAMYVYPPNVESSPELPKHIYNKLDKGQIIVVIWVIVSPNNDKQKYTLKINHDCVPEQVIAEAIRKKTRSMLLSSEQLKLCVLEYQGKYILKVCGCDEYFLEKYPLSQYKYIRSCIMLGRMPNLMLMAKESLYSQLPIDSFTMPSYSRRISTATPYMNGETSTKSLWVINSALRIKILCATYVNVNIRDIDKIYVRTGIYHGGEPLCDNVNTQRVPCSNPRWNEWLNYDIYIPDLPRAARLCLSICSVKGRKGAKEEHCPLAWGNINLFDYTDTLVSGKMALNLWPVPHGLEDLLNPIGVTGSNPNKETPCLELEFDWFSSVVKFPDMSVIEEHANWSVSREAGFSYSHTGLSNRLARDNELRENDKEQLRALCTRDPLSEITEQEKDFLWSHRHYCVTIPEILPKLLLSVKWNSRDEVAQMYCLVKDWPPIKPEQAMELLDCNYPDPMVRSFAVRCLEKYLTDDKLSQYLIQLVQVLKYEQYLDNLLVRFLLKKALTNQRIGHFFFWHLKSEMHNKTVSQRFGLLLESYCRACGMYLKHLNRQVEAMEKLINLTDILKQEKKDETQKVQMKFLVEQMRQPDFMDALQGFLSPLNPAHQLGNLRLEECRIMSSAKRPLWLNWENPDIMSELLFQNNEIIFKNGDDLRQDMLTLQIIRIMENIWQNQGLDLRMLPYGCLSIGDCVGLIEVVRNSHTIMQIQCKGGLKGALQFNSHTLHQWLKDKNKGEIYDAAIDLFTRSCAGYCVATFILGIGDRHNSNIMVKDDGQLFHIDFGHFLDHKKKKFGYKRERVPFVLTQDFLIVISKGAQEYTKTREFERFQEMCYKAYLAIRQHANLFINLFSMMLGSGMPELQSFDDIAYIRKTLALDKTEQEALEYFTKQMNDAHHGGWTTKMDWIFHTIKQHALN", "sequence (P26450 whole entry partner, the tested form may be a part)": "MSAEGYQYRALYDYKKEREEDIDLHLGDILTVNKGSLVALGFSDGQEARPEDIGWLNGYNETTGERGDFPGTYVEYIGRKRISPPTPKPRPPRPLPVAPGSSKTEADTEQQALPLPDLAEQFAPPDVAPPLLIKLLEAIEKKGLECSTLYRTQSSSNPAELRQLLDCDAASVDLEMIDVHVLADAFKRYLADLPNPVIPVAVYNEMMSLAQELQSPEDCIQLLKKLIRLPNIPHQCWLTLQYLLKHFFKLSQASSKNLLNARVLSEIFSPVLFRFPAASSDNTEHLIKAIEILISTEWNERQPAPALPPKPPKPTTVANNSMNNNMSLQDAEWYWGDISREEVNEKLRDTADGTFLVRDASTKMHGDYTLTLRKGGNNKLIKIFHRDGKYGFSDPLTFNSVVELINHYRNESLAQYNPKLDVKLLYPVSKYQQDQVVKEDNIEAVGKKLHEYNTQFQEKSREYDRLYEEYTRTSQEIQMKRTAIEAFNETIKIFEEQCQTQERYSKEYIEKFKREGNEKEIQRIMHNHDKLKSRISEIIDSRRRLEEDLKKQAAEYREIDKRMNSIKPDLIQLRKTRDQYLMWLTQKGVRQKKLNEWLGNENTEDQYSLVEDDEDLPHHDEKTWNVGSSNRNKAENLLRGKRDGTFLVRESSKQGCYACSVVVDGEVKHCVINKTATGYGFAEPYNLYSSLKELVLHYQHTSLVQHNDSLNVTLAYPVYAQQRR", "assay": "PI3-Kα biochemical assay (in vitro kinase assay, fluorescence polarization);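 also: Insect-cell-expressed mouse p110/p85 complex converting PI(4,5)P2, product PI(3,4,5)P3 detected by displacing TAMRA-tagged PI(3,4,5)P3 from Grip1 PH domain, lower polarization means more product, room temperature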", "details": "read-out: PI3Ka Ki"}, "mTOR": {"molecular_target": "mTOR (Homo sapiens (Human), UniProt P42345)", "sequence (P42345 2156-2469)": "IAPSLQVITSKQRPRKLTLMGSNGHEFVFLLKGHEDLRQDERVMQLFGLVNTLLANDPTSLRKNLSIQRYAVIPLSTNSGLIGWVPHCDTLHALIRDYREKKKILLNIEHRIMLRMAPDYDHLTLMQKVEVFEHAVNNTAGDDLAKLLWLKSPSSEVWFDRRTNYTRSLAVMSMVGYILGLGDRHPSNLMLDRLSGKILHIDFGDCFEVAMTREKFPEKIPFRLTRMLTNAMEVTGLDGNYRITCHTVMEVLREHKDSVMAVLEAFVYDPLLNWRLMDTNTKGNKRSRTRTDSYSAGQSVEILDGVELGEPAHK", "assay": "biochemical"}, "[1]": {"system": "PI3-K (phosphorylation of AKT at serine 473) in BT20 cells", "assay": "PI3-Kα cellular assay (phospho-AKT Ser473 ELISA in BT20 cells);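 also: lysates read by ELISA with TMB colour at 450 nm, cells given 0.5% DMSO vehicle serve as positive control and cell-free wells as negative control, duplicate wells per concentration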", "details": "Homo sapiens, BT-20, 1 h"}, "[2]": {"details": "read-out: S473 pAKT 0.5% FBS IC50 (μM)"}, "[3]": {"details": "read-out: S473 pAKT 10% FBS IC50 (μM)"}}, "note": "pKi: −log10 of the molar value. Where two headings read alike, the source gives them in different places."}
{"smiles": "CC(C)(C#N)c1ccc(-n2c(=O)[nH]c3cnc4ccc(-c5cnc6ccccc6c5)nc4c32)cc1", "note": "[Compound 101, 2-methyl-2-[4-(2-oxo-8-quinolin-3-yl-2,3-dihydro-1H-imidazo[4,5-c]-1,5-naphthyridin-1-yl)phenyl]propanenitrile]", "values": [{"measurement": "pKi", "setting": "PI3-Kα", "value": 8.36}, {"measurement": "pKi", "setting": "mTOR", "value": 8.44}, {"measurement": "IC50", "setting": "[1]; [2]", "value": 0.00647, "unit": "µM"}]}
{"smiles": "Cn1c(=O)n(-c2ccc(C(C)(C)C#N)cc2)c2c3nc(-c4cnc5ccccc5c4)ccc3ncc21", "note": "[Compound 102, 2-methyl-2-[4-(3-methyl-2-oxo-8-quinolin-3-yl-2,3-dihydro-1H-imidazo[4,5-c]-1,5-naphthyridin-1-yl)phenyl]propanenitrile]", "values": [{"measurement": "pKi", "setting": "PI3-Kα", "value": 9.12}, {"measurement": "pKi", "setting": "mTOR", "value": 8.52}, {"measurement": "IC50", "setting": "[1]; [2]", "value": 0.00354, "unit": "µM"}]}
{"smiles": "O=C(OCc1ccccc1)N1CCC(n2c(=O)[nH]c3cnc4ccc(-c5cnc6ccccc6c5)nc4c32)CC1", "note": "[Compound 115, benzyl4-(2-oxo-8-quinolin-3-yl-2,3-dihydro-1H-imidazo[4,5-c][1,5]naphthyridin-1-yl)piperidine-1-carboxylate]", "values": [{"measurement": "pKi", "setting": "PI3-Kα", "value": 8.11}, {"measurement": "pKi", "setting": "mTOR", "value": 7.67}, {"measurement": "IC50", "setting": "[1]; [2]", "value": 0.0322, "unit": "µM"}]}
{"smiles": "Cn1c(=O)n(C2CCN(C(=O)OCc3ccccc3)CC2)c2c3nc(-c4cnc5ccccc5c4)ccc3ncc21", "note": "[Compound 116, benzyl4-(3-methyl-2-oxo-8-quinolin-3-yl-2,3-dihydro-1H-imidazo[4,5-c][1,5]naphthyridin-1-yl)piperidine-1-carboxylate]", "values": [{"measurement": "pKi", "setting": "PI3-Kα", "value": 8.54}, {"measurement": "pKi", "setting": "mTOR", "value": 8.19}, {"measurement": "IC50", "setting": "[1]; [2]", "value": 0.0134, "unit": "µM"}]}
{"smiles": "CC(=O)N1CCC(n2c(=O)n(C)c3cnc4ccc(-c5cnc6ccccc6c5)nc4c32)CC1", "note": "[Compound 120, 1-(1-acetylpiperidin-4-yl)-3-methyl-8-quinolin-3-yl-1,3-dihydro-2H-imidazo[4,5-c][1,5]naphthyridin-2-one]", "values": [{"measurement": "pKi", "setting": "PI3-Kα", "value": 9.01}, {"measurement": "pKi", "setting": "mTOR", "value": 8.27}, {"measurement": "IC50", "setting": "[1]; [2]", "value": 0.00459, "unit": "µM"}]}
{"smiles": "Cn1c(=O)n([C@H]2CC[C@H](O)CC2)c2c3nc(-c4cnn(CCO)c4)ccc3ncc21", "note": "[Compound 164, 1-(trans-4-hydroxycyclohexyl)-8-[1-(2-hydroxyethyl)-1H-pyrazol-4-yl]-3-methyl-1,3-dihydro-2H-imidazo[4,5-c][1,5]naphthyridin-2-one]", "values": [{"measurement": "pKi", "setting": "PI3-Kα", "value": 7.79}, {"measurement": "pKi", "setting": "mTOR", "value": 7.85}, {"measurement": "IC50", "setting": "[1]; [3]", "value": 0.448, "unit": "µM"}]}
{"smiles": "Cc1ccc(-c2ccc3ncc4c(c3n2)n(C2CCN(C(N)=O)CC2)c(=O)n4C)cn1", "note": "[Compound 167, 4-[3-methyl-8-(6-methylpyridin-3-yl)-2-oxo-2,3-dihydro-1H-imidazo[4,5-c][1,5]naphthyridin-1-yl]piperidine-1-carboxamide]", "values": [{"measurement": "pKi", "setting": "PI3-Kα", "value": 8.71}, {"measurement": "pKi", "setting": "mTOR", "value": 8.89}, {"measurement": "IC50", "setting": "[1]; [3]", "value": 0.112, "unit": "µM"}]}
{"smiles": "CN(C)c1ccc(-c2ccc3ncc4c(c3n2)n([C@H]2CC[C@H](O)CC2)c(=O)n4C)cn1", "note": "[Compound 175, 8-[6-(dimethylamino)pyridin-3-yl]-1-(trans-4-hydroxycyclohexyl)-3-methyl-1,3-dihydro-2H-imidazo[4,5-c][1,5]naphthyridin-2-one]", "values": [{"measurement": "pKi", "setting": "PI3-Kα", "value": 9.18}, {"measurement": "pKi", "setting": "mTOR", "value": 8.74}, {"measurement": "IC50", "setting": "[1]; [3]", "value": 0.00526, "unit": "µM"}]}
{"smiles": "Cc1ccc(-c2ccc3ncc4c(c3n2)n(C2CCNCC2)c(=O)n4C)cn1", "note": "[Compound 177, 3-methyl-8-(6-methyl-pyridin-3-yl)-1-piperidin-4-yl-1,3-dihydro-1,3,5,9-tetraaza-cyclopenta[a]naphthalen-2-one]", "values": [{"measurement": "pKi", "setting": "PI3-Kα", "value": 8.61}, {"measurement": "pKi", "setting": "mTOR", "value": 8.14}, {"measurement": "IC50", "setting": "[1]; [3]", "value": 0.101, "unit": "µM"}]}
{"smiles": "CNC(=O)N1CCC(n2c(=O)n(C)c3cnc4ccc(-c5ccc(C)nc5)nc4c32)CC1", "note": "[Compound 181, N-methyl-4-[3-methyl-8-(6-methylpyridin-3-yl)-2-oxo-2,3-dihydro-1H-imidazo[4,5-c][1,5]naphthyridin-1-yl]piperidine-1-carboxamide]", "values": [{"measurement": "pKi", "setting": "PI3-Kα", "value": 8.49}, {"measurement": "pKi", "setting": "mTOR", "value": 8.97}, {"measurement": "IC50", "setting": "[1]; [3]", "value": 0.0594, "unit": "µM"}]}
{"smiles": "CNC(=O)N1CCC(n2c(=O)n(C)c3cnc4ccc(-c5cnc(OC)nc5)nc4c32)CC1", "note": "[Compound 186, 4-[8-(2-methoxypyrimidin-5-yl)-3-methyl-2-oxo-2,3-dihydro-1H-imidazo[4,5-c][1,5]naphthyridin-1-yl]-N-methylpiperidine-1-carboxamide]", "values": [{"measurement": "pKi", "setting": "PI3-Kα", "value": 8.60}, {"measurement": "pKi", "setting": "mTOR", "value": 8.51}, {"measurement": "IC50", "setting": "[1]; [3]", "value": 0.0681, "unit": "µM"}]}
{"smiles": "COc1ncc(-c2ccc3ncc4c(c3n2)n(C2CCN(C(=O)CO)CC2)c(=O)n4C)cn1", "note": "[Compound 189, 1-(1-glycoloylpiperidin-4-yl)-8-(2-methoxypyrimidin-5-yl)-3-methyl-1,3-dihydro-2H-imidazo[4,5-c][1,5]naphthyridin-2-one]", "values": [{"measurement": "pKi", "setting": "PI3-Kα", "value": 8.75}, {"measurement": "pKi", "setting": "mTOR", "value": 8.71}, {"measurement": "IC50", "setting": "[1]; [3]", "value": 0.0272, "unit": "µM"}]}
{"smiles": "COc1ncc(-c2ccc3ncc4c(c3n2)n(C2CCN(CC(N)=O)CC2)c(=O)n4C)cn1", "note": "[Compound 190, 2-{4-[8-(2-methoxypyrimidin-5-yl)-3-methyl-2-oxo-2,3-dihydro-1H-imidazo[4,5-c][1,5]naphthyridin-1-yl]piperidin-1-yl}acetamide]", "values": [{"measurement": "pKi", "setting": "PI3-Kα", "value": 8.30}, {"measurement": "pKi", "setting": "mTOR", "value": 8.01}, {"measurement": "IC50", "setting": "[1]; [3]", "value": 0.0903, "unit": "µM"}]}
{"smiles": "CN[C@H]1CC[C@H](n2c(=O)n(C)c3cnc4ccc(-c5cnc6ccccc6c5)nc4c32)CC1", "note": "[Compound 193, 3-methyl-1-[trans-4-(methylamino)cyclohexyl]-8-quinolin-3-yl-1,3-dihydro-2H-imidazo[4,5-c][1,5]naphthyridin-2-one]", "values": [{"measurement": "pKi", "setting": "PI3-Kα", "value": 8.79}, {"measurement": "pKi", "setting": "mTOR", "value": 7.88}, {"measurement": "IC50", "setting": "[1]; [2]", "value": 0.0404, "unit": "µM"}]}
{"smiles": "Cn1c(=O)n([C@H]2CC[C@H](N)CC2)c2c3nc(-c4cnc5ccccc5c4)ccc3ncc21", "note": "[Compound 194, 1-(trans-4-aminocyclohexyl)-3-methyl-8-quinolin-3-yl-1,3-dihydro-2H-imidazo[4,5-c][1,5]naphthyridin-2-one]", "values": [{"measurement": "pKi", "setting": "PI3-Kα", "value": 8.64}, {"measurement": "pKi", "setting": "mTOR", "value": 8.10}, {"measurement": "IC50", "setting": "[1]; [2]", "value": 0.0464, "unit": "µM"}]}
{"smiles": "CN(C)C(=O)CN1CCC(n2c(=O)n(C)c3cnc4ccc(-c5cnn(C)c5)nc4c32)CC1", "note": "[Compound 212, N,N-dimethyl-2-{4-[3-methyl-8-(1-methyl-1H-pyrazol-4-yl)-2-oxo-2,3-dihydro-1H-imidazo[4,5-c][1,5]naphthyridin-1-yl]piperidin-1-yl}acetamide]", "values": [{"measurement": "pKi", "setting": "PI3-Kα", "value": 7.83}, {"measurement": "pKi", "setting": "mTOR", "value": 7.55}, {"measurement": "IC50", "setting": "[1]; [3]", "value": 0.248, "unit": "µM"}]}
{"smiles": "CC(=O)N1CCC(n2c(=O)n(C)c3cnc4ccc(-c5cccc6ncccc56)nc4c32)CC1", "note": "[Compound 249, 1-(1-acetylpiperidin-4-yl)-3-methyl-8-quinolin-5-yl-1,3-dihydro-2H-imidazo[4,5-c][1,5]naphthyridin-2-one]", "values": [{"measurement": "pKi", "setting": "PI3-Kα", "value": 8.35}, {"measurement": "pKi", "setting": "mTOR", "value": 6.35}, {"measurement": "IC50", "setting": "[1]; [3]", "value": 0.194, "unit": "µM"}]}
